Laboratory results reported in patent US9682938B2, “Pyrazolone derivatives as nitroxyl donors” (Cardioxyl Pharmaceuticals, Inc., priority 2014, dated 2017).

Columns and labels:
[1] = Solid-state stability at 40° C. and 75% RH (purity by HPLC); type: physicochemical; conditions: solid powder
Procedure: Solid, powdered samples of certain compounds from Table 1 were sealed in double polyethylene bags and stored at 40° C., 75% relative humidity (“RH”) for up to 3 months. A control compound, compound 7 disclosed in WO 2013/059194, was also tested. Initially and after 1 month, 2 months, and 3 months of storage, the samples were analyzed for purity, as determined by high performance liquid chromatography (“HPLC”). Additionally, certain compounds from Table 1 were admixed at a level of 50% by weight with one of the following excipients before stability testing: lactose, microcrystalline cellulose, or croscarmellose sodium. The resulting admixtures were also stored as described above then analyzed for purity of the pyrazolone derivative component, as determined by HPLC. The HPLC apparatus comprised a quaternary or binary pump, an auto sampler, a thermostated column compartment, and a UV/visible detector. The HPLC measurement conditions were as follows: • Column: Zorbax Eclipse XDB-C18, 2.1×50 mm, 3.5 μm (Agilent Technologies, Santa Clara, Calif.) • Injection Volume: 2 μL • Detection Wavelength: 220 nm • Mobile Phase A: 0.1% by volume formic acid (“FA”) in water • Mobile Phase B: 0.1% by volume FA in acetonitrile • Diluent: About 0.2 mg sample/mL acetonitrile • Gradient:
• Flow Rate: 0.8 mL/min • Column Temperature: 25° C.

[2] = In vitro plasma stability, rat plasma; type: in vitro ADME; conditions: male, pH 7.4, 5 μM, 37° C., sampling 0-360 minutes, read-out: T1/2 Rat
Outline: (§1)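 Pooled plasma at pH 7.4 with sodium heparin or citrate anticoagulant; compound at 5 μM, 37° C with shaking, triplicate samples at 0–360 min. Quenched in acetonitrile/1% formic acid with internal standard; LC-MS/MS peak-area ratios without standard curve; T1/2 from percent remaining.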

[3] = In vitro plasma stability, human plasma; type: in vitro ADME; conditions: male, pH 7.4, 5 μM, 37° C., sampling 0-360 minutes, read-out: T1/2 Human
Outline: as §1

normal beagle dogs = experiment: Pharmacodynamic activity: systolic blood pressure decrease in telemetered dogs after oral dose; type: in vivo, dog; conditions: beagle dogs (n=3), single oral dose 30 mg/kg in PEG300, first 2 hr post-dose relative to baseline SBP
Procedure: The effect of certain compounds from Table 1 on blood pressure in freely moving telemetered normal beagle dogs (n=3) after single oral doses was evaluated. The animals were surgically implanted with a pressure transducer equipped telemetry transmitter. The transmitter assembly was secured internally and a fluid-filled catheter was placed into the abdominal aorta to allow for collection of cardiovascular data. To evaluate cardiovascular effects, 3 dogs were given single oral doses of a compound from Table 1 (100% PEG300 in gelatin capsules) at a concentration of 100 mg/mL and at doses of 30 mg/kg. Systemic blood pressure and heart rate were evaluated continuously for 2 hr before and for 24 hr after dosing (results not shown). To compare the pharmacodynamic activity for all tested compounds, the mean systolic blood pressure (SBP) decrease during the first 2 hr post-dose was determined relative to the baseline SBP (30-120 min pre-dose) (Table 6).

[4] = In vitro plasma stability, dog plasma; type: in vitro ADME; conditions: male, pH 7.4, 5 μM, 37° C., sampling 0-360 minutes, read-out: T1/2 Dog
Outline: as §1

[5] = Nitroxyl production via 1H NMR protocol using TXPTS (NMR half-lives); type: physicochemical; conditions: phosphate buffer containing TXPTS (HNO trap); pH 7.4, 0.25 M phosphate buffer, 5 mM TXPTS, 1 mM compound, 37° C., spectra over 8 hours; read-out: NMR-T1/2
Procedure: The ^1H NMR procedure used was based on an HPLC protocol developed by S. Bruce King and coworkers (Reisz et al., Org. Lett. 11:2719-2721 (2009), Reisz et al., J. Am. Chem. Soc. 133:11675-11685 (2011) and Guthrie et al., J. Org. Chem. 80:1338-1348 (2015)). According to this procedure, the amount of HNO released from a pyrazolone derivative compound was determined by reacting the compound with the triarylphosphine TXPTS and monitoring the resulting aza-ylide formation.
The procedure for determining the amount of HNO released from certain compounds from Table 1 was as follows.
Tris(4,6-dimethyl-3-sulfanatophenyl)phosphine trisodium salt (TXPTS) was of reagent grade and used without further purification. Synthetic TXPTS aza-ylide was obtained through the amidation of TXPTS using hydroxylamine O-sulfonic acid in water (Armstrong et al., Org. Lett. 7:713-716 (2005)). All other materials were of reagent grade and used without further purification.
All ^1H NMR spectra were obtained in an adjusted-to pH 7.4 solution containing 0.25 M phosphate buffer, 0.2 mM of the metal chelator diethylenetriaminepentaacetic acid (“DTPAC”), and 10% D2O on a Bruker Avance 250 MHz FT-NMR spectrometer using a 1 second presaturation pulse to suppress the water signal. To a nitrogen-purged NMR solution (1.00 mL) containing TXPTS (3.3 mg, 5 mM) was added a pyrazolone derivative compound (10 μL of 100 mM in methanol-d4) to give 1 mM as the initial concentration of the pyrazolone derivative compound. The solution was briefly mixed, about 0.5 mL was transferred to a nitrogen-purged NMR tube and an initial ^1H NMR spectrum (time=0) was obtained. Thereafter, the sample was internally incubated at 37° C. and ^1H NMR spectra were collected at regular intervals for 8 hours.
The HNO donating pyrazolone derivative compound, by-product (e.g., (III) in Scheme 1), and TXPTS aza-ylide concentrations, determined from NMR spectra taken over 8 hours, were plotted as a function of time, and each data set was fitted to a single exponential function. The NMR half-lives for the disappearance of the HNO donating pyrazolone derivative compound and the appearance of by-product and TXPTS aza-ylide were determined from the respective plots. […] A control compound, compound 7 disclosed in WO 2013/059194, was also evaluated.

- Solid-state stability, purity by HPLC, 0 Months ([1]; 0 Months (initial)): 100%
- Solid-state stability, purity by HPLC, 1 Month ([1]; 1 Month, in % (unit assumed)): 99.2
- Solid-state stability, purity by HPLC, 2 Months ([1]; 2 Months): 99.8%
- Solid-state stability, purity by HPLC, 3 Months ([1]; 3 Months): 99.8%
- half-life at 5 μM [2]: 1.33 h
- half-life at 5 μM [3]: 1.4 h
- half-life at 5 μM [4]: 2.47 h
- half-life at 1 mM [5]: 13 h
Structure (SMILES): CN1N=C(c2ccc(Cl)cc2)C(C)(NO)C1=O (stereo not drawn) [Compound 1, 5-(4-chlorophenyl)-4-(hydroxyamino)-2,4-dimethyl-2,4-dihydro-3H-pyrazol-3-one]
- Mean SBP decrease (normal beagle dogs): 3 mmHg
